Laboratory results: publication PMC10072326, “Promising anticancer agents based on 8-hydroxyquinoline hydrazone copper(II) complexes” (Frontiers in Chemistry, 2023)
≈ marks a conversion by molar mass, not a printed value.

How the values were obtained:
[1] = parameters: method as in Ribeiro et al., 2022; conditions: ligand precursors; pH 7.4; ref Ribeiro et al., 2022; cited from earlier work
[2] = biological target: bovine serum albumin (BSA) (Bos taurus, UniProt P02769); test: BSA fluorescence quenching; assay type: binding; parameters: Affinity constant K ± SD: unit not given here; conditions: fluorescence quenching; HypSpec2014; 1:1 species assumed
Experimental: To evaluate the interaction of the compounds, both organic and Cu(II) complexes, with bovine serum albumin (BSA) fluorescence spectra were measured. In a typical fluorescence experiment, to a solution of 1.5 μM of BSA in the same buffer, successive aliquots of a stock solution of each compound in DMSO were added directly to the cuvette (optical path 1.0 cm). The fluorescence emission was recorded between 310 and 600 nm with excitation at 295 nm. The final DMSO % was kept below 2% (v/v). The Stern-Volmer plots were built using the emission at 340 nm and blank samples (in the absence of BSA) with the same concentration of the complexes were recorded and subsequently subtracted from the corresponding emission spectra containing the fluorophore. Moreover, the fluorescence emission intensity was corrected for reabsorption and inner filter effects using UV-Vis absorption data recorded for each sample, since all complexes absorb in the measured wavelength range (19, 20).
The interaction of the organic compounds and Cu(II) complexes with BSA was monitored by studying the quenching of albumin’s fluorescence emission with increasing concentrations of the complexes (25). Overall, the intensity of the Trp emission decreases with the addition of the complexes, except for 8 (see Figs. S19). The Stern-Volmer relationship was used to analyse the fluorescence quenching process:
where I0 and I are the fluorescence intensities in the absence and in the presence of quencher, kq is the bimolecular quenching rate, τ0 is the fluorophore lifetime in the absence of the quencher (6.22 ns) (26) and [Q] is the quencher concentration. […] This linear relationship is obeyed for all complexes except 5, where a downward curvature is observed. This can be an indication of two distinct binding sites, corresponding to two populations of fluorophores, one being accessible and other inaccessible or buried inside the protein. In such cases, the Stern-Volmer relation can be modified to (27):
where ΔI = I0 – I, Ka is the Stern-Volmer constant for the accessible fraction and fa is the fraction of accessible fluorophore. […] As first approximation, the total concentration of quencher was used to check the quenching mechanism. […] As all systems presented high absorbance values in the measured range of wavelengths, no excess of quencher was used and, therefore, 1:1 species will be assumed for these interactions.

A-375 cells = test: Sulforhodamine B (SRB) cell viability assay; assay type: cell-based; conditions: Homo sapiens, 72 h
Experimental: (§1) Copper compounds were tested, along with the free ligands and cisplatin as the positive control, for their cytotoxicity on both melanoma (A-375) and lung adenocarcinoma (A-549) cell lines in the concentration range 0.78–50 μM. Following 72 h of incubation, cell viability was measured via sulforhodamine B (SRB) assay (Supplementary Figure S25).
(§2) A-375 cells (ATCC, CRL-3222) were grown in Dulbecco’s Modified Eagle Medium with high glucose (Gibco #11965118) and A-549 (ATCC, CCL-185) cells were grown in Dulbecco’s Modified Eagle Medium F-12 (Gibco #11320033), supplemented with 10% FBS (Gibco, #10500064) and Penicillin-Streptomycin (10,000 U/mL, Gibco, #15140122). Cells were incubated at 37 °C, 5% CO2 incubator and subcultured every 3 days.
(§3) All the tested complexes were dissolved in DMSO (10 mM stock solution), and aliquots were stored at -20 °C, thawed on the experiment day and used only once. For SRB cell viability assay, A-375 and A-549 cells were seeded on 96-well plates (4×10^3 cells/well) and treated with serial dilutions of indicated compounds (with a concentration range of 0-50 μM, 72 h). Trichloroacetic acid (TCA) was added to wells for fixation at a final concentration of 10%, for 1 h at 4 °C. Each well was washed five times with ddH2O, dried, and incubated with 0.4% (w/v) SRB dye (50 µL/well) for 30 min at room temperature. The wells were washed with 1% acetic acid (v/v) five times, and 150 µL of 10 mM Tris solution was added to dissolve the stain. Colorimetric measurements were taken at λ = 564 nm. Viability percentage was calculated as follows: % Cell Viability = [100 × (sample Abs.-blank) / (non-treated control Abs.-blank)].

A-549 cells = test: Sulforhodamine B (SRB) cell viability assay; assay type: cell-based; conditions: Homo sapiens, A549, 72 h
Experimental: as §1, §2, §3

[3] = Cu(II) complex formation and stability constants by UV-Vis spectrophotometric titrations; assay type: physicochemical; conditions: for pCu (= −log[Cu(II)]): pH 7.4, c Cu(II) = 1 μM, computed from stability constants
Experimental: The complex formation processes of L^1, L^5 and L^6 with Cu(II) ions were studied by UV-Vis spectrophotometry in 30% (v/v) DMSO/H2O using relatively low concentrations (c L = 50–60 μM), due to the limited water solubility of the ligand precursors as well as of the Cu(II) complexes (see thermodynamic solubility data in aqueous media in Table 2 and Table 3). L^1 was selected as the simplest compound of the studied ligand series, whereas L^5 and L^6 were selected to compare with the oxidovanadium(IV) system ([Ribeiro et al., 2022]). The solution stability and stoichiometry of the Cu(II) complexes were determined by the evaluation of the UV-Vis spectra recorded at various pH values (representative spectra are shown for the Cu(II) ‒ L^1 and Cu(II) ‒ L^6 systems in Figures 3A,B and for Cu(II) ‒ L^5 in Supplementary Figure S10A). The computed overall stability constants and pK a values of the complexes are collected in Table 3. The formation of only mono-ligand complexes was found with [Cu(LH)]^+, [Cu(L)], and [Cu(LH‒1)]^‒ (and [Cu(LH‒2)]^2‒ in the case of L^6) compositions, and their computed molar absorbance spectra are shown in Figures 3C, D, Supplementary Figure S10B.
An Agilent Cary 8454 diode array spectrophotometer was used to record the UV-Vis spectra in the range of 200–800 nm. Titrations were carried out with a Metrohm 665 Dosimat burette and an Orion 710A pH-meter equipped with a Metrohm combined electrode. A ionic strength of 0.10 M (KCl) was used to keep the activity coefficients constant. The titrations were performed with 0.10 M carbonate-free KOH solution in a 30% (v/v) DMSO/H2O solvent mixture. […] The average water ionization constant (pKw) is 14.53 ± 0.05 in the 30% (v/v) DMSO/H2O solvent mixture. The pKa values of the ligand precursors and the logβ values for the Cu(II) complexes were determined in 30% (v/v) DMSO/H2O in the same way as it was done in our previous publications (9, 11).
Spectrophotometric titrations were carried out on samples containing the ligands at 50 μM concentration, in the pH range from 2.0 to 11.5 in the absence or the presence of 1, 0.5 or 0.25 equiv. Cu(II) ions, using 10 cm^3 sample volumes. Proton dissociation constants (pKa) of the ligand precursors as well as stoichiometry and stability constants of the Cu(II) complexes (β) were calculated by the computer program PSEQUAD (12). The usual definition of overall (β) and stepwise (K) formation constants is used: […]

[4] = parameters: method as in Ribeiro et al., 2022; conditions: 30% (v/v) DMSO/H2O; t = 25.0°C; I = 0.1 M (KCl); ref Ribeiro et al., 2022; cited from earlier work
[5] = Cu(II) complex of the ligand, 30% (v/v) DMSO/H2O, t = 25.0°C, I = 0.10 M (KCl)
[6] = proton dissociation of the Cu(II) complex, 30% (v/v) DMSO/H2O

bovine serum albumin (BSA), sequence (P02769 25-607): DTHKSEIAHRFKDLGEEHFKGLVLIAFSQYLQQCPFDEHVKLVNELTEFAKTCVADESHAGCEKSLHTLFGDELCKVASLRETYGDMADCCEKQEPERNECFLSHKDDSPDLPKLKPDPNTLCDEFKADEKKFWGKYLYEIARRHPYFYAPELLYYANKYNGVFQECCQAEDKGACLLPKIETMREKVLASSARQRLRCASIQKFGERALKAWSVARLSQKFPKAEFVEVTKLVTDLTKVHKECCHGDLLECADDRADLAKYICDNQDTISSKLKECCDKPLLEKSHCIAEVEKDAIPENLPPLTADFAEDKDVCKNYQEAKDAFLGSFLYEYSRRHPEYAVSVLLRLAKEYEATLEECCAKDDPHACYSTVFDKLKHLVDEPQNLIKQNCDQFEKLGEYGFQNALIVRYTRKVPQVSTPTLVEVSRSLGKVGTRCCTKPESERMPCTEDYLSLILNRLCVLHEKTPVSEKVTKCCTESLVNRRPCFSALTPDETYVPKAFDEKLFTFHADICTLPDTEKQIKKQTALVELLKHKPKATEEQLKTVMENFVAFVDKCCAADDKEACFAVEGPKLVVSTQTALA

O=C(N/N=C/c1ccc2cccc(O)c2n1)c1ccccc1 [L^1]
thermodynamic solubility S 7.4 [1]: 3.7 µM (≈ 1.08 µg/mL)
Affinity constant K ± SD [2]: (4.6 ± 0.2) × 10^5
IC50 (A-375 cells): 12.3 ± 0.5 µM
IC50 (A-549 cells): > 50 µM
logβ [Cu(L)] [3, 5]: 17.79 ± 0.02
logβ [Cu(LH)]^+ [3, 5]: 23.41 ± 0.02
logβ [Cu(LH‒1)]^‒ [3, 5]: 7.39 ± 0.03
pCu (= −log[Cu(II)]) ([3]; c L = 1 μM): 8.96
pCu (= −log[Cu(II)]) ([3]; c L = 10 μM): 12.59
pK a [Cu(L)] [3, 6]: 10.40
pK a [Cu(LH)]^+ [3, 6]: 5.62
pK a1 [4]: 2.24
pK a2 [4]: 9.51
pK a3 [4]: 11.45
